Test results published in article PMC9090415, “Discovery of small molecule inhibitors of Plasmodium falciparum apicoplast DNA polymerase” (Journal of Enzyme Inhibition and Medicinal Chemistry, 2022).

Molecular target: P. falciparum apicoplast DNA polymerase (Pf-apPOL) (Plasmodium falciparum, UniProt Q8ILY1)
Assay: Fluorescence-based high-throughput DNA polymerase assay (molecular beacon), primary screen and dose-response
Format: biochemical
Method: The HT assay employs a molecular beacon, a stem-loop DNA template with a Cy3 dye and the Black Hole Quencher on the 3′ and 5′ ends of the DNA, respectively. Pf-apPOL concentration is based on a calculated absorptivity of ε280 = 56750 M^−1 cm^−1. Reactions were carried out at 25 °C, using Corning 3575 […] (well-volume, 20 µL). Assays testing for compound inhibition composed of reaction buffer (pH 7.9 in 50 mM potassium acetate, 20 mM Tris-acetate and 10 mM magnesium acetate), Pf-apPOL (20 nM), DNA substrate (20 nM), dNTPs (6 µM), and compound (10 µM in DMSO). The DNA and nucleotide substrates (dNTPs) were at concentrations of 20 nM and 6 µM, respectively, in the assay. Pf-apPOL was incubated in the reaction buffer with dNTPs and the compound of interest (10 µM, in the assay) at 25 °C for 10 min. The DNA substrate was then added and the reaction was allowed to proceed for 90 min at 25 °C.
Each assay plate contained 16 negative controls (no Pf-apPOL, DMSO present) and 16 positive controls (Pf-apPOL present, no DMSO). The fluorescence of each well was determined using a BioTek Synergy Neo fluorescence plate reader using excitation and emission wavelengths of 555 and 570 nm, respectively.
In the above, Min is the average of fluorescence emission of the negative controls (substrate only), Max the average fluorescence emission from the positive controls (enzyme + substrate), and Test the emission from the assays in the presence of compounds (enzyme + compound + substrates). […] […] The IC50 of each compound was determined using Equation (2): (2) IC50= Vmax/(1+ (I/IC50)^n)
In the above, n measures cooperativity, with n > 1 indicating synergistic binding of more than a single molecule of the compound.
To identify apPOL inhibitors we utilised our previously developed high-throughput DNA polymerase assay. The HT assay is based on a molecular beacon DNA template that forms a stem-loop with a Cy3 dye and the Black Hole Quencher on the 3′ and 5′ ends of the DNA, respectively. DNA polymerase activity extends an annealed primer through the stem region, displacing the fluorophore from the quencher, thereby increasing its fluorescence (Figure 1(A)). The assay accurately recapitulates the kinetic behaviour of apPOL, as measured through more conventional low-throughput gel-based assays. The Z′ factor for the assay described here was 0.9 across all plates (data not shown).
Figure 1. High-throughput screening. (A) The fluorescent-based DNA polymerase assay used to screen the compound libraries. The DNA template strand is a hairpin loop with a primer annealed to the loop. The 3’ end of the primer is 11 bases away from the 6 bp duplex. Strand displacement activity of the DNA polymerase separates the Cy3 dye from the Black hole quencher leading to an increase in fluorescent signal. (B) The high-throughput assay workflow. The DNA polymerase is incubated with […] compound for 10 min prior to addition of the hairpin substrate. The reaction is quenched at 3 different time points and the fluorescent signal is measured and % inhibition is determined using the provided equation.

P. falciparum apicoplast DNA polymerase (Pf-apPOL), sequence (Q8ILY1 entry or part of it): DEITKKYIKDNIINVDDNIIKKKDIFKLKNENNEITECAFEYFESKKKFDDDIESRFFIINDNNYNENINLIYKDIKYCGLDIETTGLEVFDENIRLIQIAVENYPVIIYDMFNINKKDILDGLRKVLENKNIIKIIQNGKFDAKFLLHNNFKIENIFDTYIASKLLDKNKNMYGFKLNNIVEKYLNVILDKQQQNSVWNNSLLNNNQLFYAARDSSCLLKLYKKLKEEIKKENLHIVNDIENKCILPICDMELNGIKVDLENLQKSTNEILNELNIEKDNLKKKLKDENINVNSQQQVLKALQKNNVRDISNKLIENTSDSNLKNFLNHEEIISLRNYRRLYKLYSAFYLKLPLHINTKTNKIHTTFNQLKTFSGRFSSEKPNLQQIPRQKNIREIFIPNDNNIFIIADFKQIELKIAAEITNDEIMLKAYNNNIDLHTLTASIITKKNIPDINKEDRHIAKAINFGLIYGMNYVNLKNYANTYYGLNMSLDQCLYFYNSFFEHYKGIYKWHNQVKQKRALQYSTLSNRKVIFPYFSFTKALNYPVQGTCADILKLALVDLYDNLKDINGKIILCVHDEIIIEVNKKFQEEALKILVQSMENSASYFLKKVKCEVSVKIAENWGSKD

`CS(=O)(=O)c1cccc(C(=O)Nc2nnc(-c3ccno3)o2)c1` [KU0171319] was tested, and the “DNA Pol” value (186 hits, value of the hit list (primary screen); unit not given; 90 min, 10 µM) was 45, the “% inhibition Apo pol 10'” value (DRC-1; 10'; concentration 2.5) was 6.657% and the “% inhibition Apo pol 10'” value (DRC-1; 10'; concentration 5) was 14.8177%. For the same molecule, the “% inhibition Apo pol 10'” value (DRC-1; 10'; concentration 10) was 36.7259%, the “% inhibition Apo pol 10'” value (DRC-1; 10'; concentration 20) was 44.3674% and the “% inhibition Apo pol 10'” value (DRC-1; 10'; concentration 40) was 60.0862%. The “% inhibition Apo pol 10'” value (DRC-1; 10'; concentration 80) was 69.7787%, the “% inhibition Apol 90'” value (DRC-1; 90'; concentration 2.5) was -3.363% and the “% inhibition Apol 90'” value (DRC-1; 90'; concentration 5) was 1.476%. For the same molecule, the “% inhibition Apol 90'” value (DRC-1; 90'; concentration 10) was 14.1125%, the “% inhibition Apol 90'” value (DRC-1; 90'; concentration 20) was 18.6112% and the “% inhibition Apol 90'” value (DRC-1; 90'; concentration 40) was 31.6807%. The “% inhibition Apol 90'” value (DRC-1; 90'; concentration 80) was 46.8389%, the “% inhibition apPOL 180'” value (DRC-1; 180'; concentration 2.5) was -9.274% and the “% inhibition apPOL 180'” value (DRC-1; 180'; concentration 5) was -6.316%. For the same molecule, the “% inhibition apPOL 180'” value (DRC-1; 180'; concentration 10) was 0.8537%, the “% inhibition apPOL 180'” value (DRC-1; 180'; concentration 20) was 2.328% and the “% inhibition apPOL 180'” value (DRC-1; 180'; concentration 40) was 13.3473%. For the same molecule, the “% inhibition apPOL 180'” value (DRC-1; 180'; concentration 80) was 27.8767%, the “% inhibition Apo pol 5'” value (DRC-2, 5', concentration 2.5) was 8% and the “% inhibition Apo pol 5'” value (DRC-2, 5', concentration 5) was 13%. The “% inhibition Apo pol 5'” value (DRC-2, 5', concentration 10) was 24%, the “% inhibition Apo pol 5'” value (DRC-2, 5', concentration 20) was 29% and the “% inhibition Apo pol 5'” value (DRC-2, 5', concentration 40) was 32%. The “% inhibition Apo pol 5'” value (DRC-2, 5', concentration 80) was 22%, the “% inhibition Apol 40'” value (DRC-2, 40', concentration 2.5) was 1.54% and the “% inhibition Apol 40'” value (DRC-2, 40', concentration 5) was 4.6%. For the same molecule, the “% inhibition Apol 40'” value (DRC-2, 40', concentration 10) was 13%, the “% inhibition Apol 40'” value (DRC-2, 40', concentration 20) was 17% and the “% inhibition Apol 40'” value (DRC-2, 40', concentration 40) was 28%. The “% inhibition Apol 40'” value (DRC-2, 40', concentration 80) was 35%, the “% inhibition ApPOL 90'” value (DRC-2, 90', concentration 2.5) was -0.356% and the “% inhibition ApPOL 90'” value (DRC-2, 90', concentration 5) was 0.372%. The “% inhibition ApPOL 90'” value (DRC-2, 90', concentration 10) was 8%, the “% inhibition ApPOL 90'” value (DRC-2, 90', concentration 20) was 11% and the “% inhibition ApPOL 90'” value (DRC-2, 90', concentration 40) was 21%. For the same molecule, the “% inhibition ApPOL 90'” value (DRC-2, 90', concentration 80) was 34%, the “% inhibition apPOL 180'” value (DRC-2, 180', concentration 2.5) was -5.4% and the “% inhibition apPOL 180'” value (DRC-2, 180', concentration 5) was -8%. For the same molecule, the “% inhibition apPOL 180'” value (DRC-2, 180', concentration 10) was -3%, the “% inhibition apPOL 180'” value (DRC-2, 180', concentration 20) was -2.43% and the “% inhibition apPOL 180'” value (DRC-2, 180', concentration 40) was 7.43%. The “% inhibition apPOL 180'” value (DRC-2, 180', concentration 80) was 26%, the “% inhibition Apo pol 5'” value (DRC-2; 5'; concentration 2.5) was 8% and the “% inhibition Apo pol 5'” value (DRC-2; 5'; concentration 5) was 13%. For the same molecule, the “% inhibition Apol 40'” value (DRC-2; 40'; concentration 10) was 13%, the “% inhibition ApPOL 90'” value (DRC-2; 90'; concentration 10) was 8% and the “DNA Pol” value (primary screen value, 'DNA Pol' only; 90 min, 10 µM) was 45.

For `O=C(NNC(=O)C(F)(F)Sc1ccccc1)c1ccsc1` [Molecule 68], the IC50 (supplemental file 2, sheet IC50 nontoxic compounds; Pf-apPOL) was 21 µM.

For `COCC(=O)Nc1c(-c2cccc(F)c2)nc2cc(C)ccn12` [Molecule 44, COCC(=O)Nc1c(nc2n1ccc(c2)C)c1cccc(c1)F], the “% inhibition Apo pol 10'” value (DRC-1; 10'; concentration 2.5) was 6.785%, the “% inhibition Apo pol 10'” value (DRC-1; 10'; concentration 5) was 30.033% and the “% inhibition Apo pol 10'” value (DRC-1; 10'; concentration 10) was 50.0286%. The “% inhibition Apo pol 10'” value (DRC-1; 10'; concentration 20) was 55.8788%, the “% inhibition Apo pol 10'” value (DRC-1; 10'; concentration 40) was 80.2368% and the “% inhibition Apo pol 10'” value (DRC-1; 10'; concentration 80) was 83.5036%. The “% inhibition Apol 90'” value (DRC-1; 90'; concentration 2.5) was 1.502%, the “% inhibition Apol 90'” value (DRC-1; 90'; concentration 5) was 18.1602% and the “% inhibition Apol 90'” value (DRC-1; 90'; concentration 10) was 35.5455%. The “% inhibition Apol 90'” value (DRC-1; 90'; concentration 20) was 42.2252%, the “% inhibition Apol 90'” value (DRC-1; 90'; concentration 40) was 74.869% and the “% inhibition Apol 90'” value (DRC-1; 90'; concentration 80) was 86.4562%. For the same molecule, the “% inhibition apPOL 180'” value (DRC-1; 180'; concentration 2.5) was -2.445%, the “% inhibition apPOL 180'” value (DRC-1; 180'; concentration 5) was 8.4449% and the “% inhibition apPOL 180'” value (DRC-1; 180'; concentration 10) was 23.452%. The “% inhibition apPOL 180'” value (DRC-1; 180'; concentration 20) was 30.1351%, the “% inhibition apPOL 180'” value (DRC-1; 180'; concentration 40) was 67.7953% and the “% inhibition apPOL 180'” value (DRC-1; 180'; concentration 80) was 86.4237%. For the same molecule, the “% inhibition Apo pol 5'” value (DRC-2; 5'; concentration 2.5) was 10%, the “% inhibition Apo pol 5'” value (DRC-2; 5'; concentration 5) was 29% and the “% inhibition Apo pol 5'” value (DRC-2; 5'; concentration 10) was 41%. The “% inhibition Apo pol 5'” value (DRC-2; 5'; concentration 20) was 50%, the “% inhibition Apo pol 5'” value (DRC-2; 5'; concentration 40) was 52% and the “% inhibition Apo pol 5'” value (DRC-2; 5'; concentration 80) was 45%. The “% inhibition Apol 40'” value (DRC-2; 40'; concentration 2.5) was 9%, the “% inhibition Apol 40'” value (DRC-2; 40'; concentration 5) was 27% and the “% inhibition Apol 40'” value (DRC-2; 40'; concentration 10) was 40%. The “% inhibition Apol 40'” value (DRC-2; 40'; concentration 20) was 59%, the “% inhibition Apol 40'” value (DRC-2; 40'; concentration 40) was 69% and the “% inhibition Apol 40'” value (DRC-2; 40'; concentration 80) was 69%. The “% inhibition ApPOL 90'” value (DRC-2; 90'; concentration 2.5) was 8%, the “% inhibition ApPOL 90'” value (DRC-2; 90'; concentration 5) was 24% and the “% inhibition ApPOL 90'” value (DRC-2; 90'; concentration 10) was 38%. For the same molecule, the “% inhibition ApPOL 90'” value (DRC-2; 90'; concentration 20) was 58%, the “% inhibition ApPOL 90'” value (DRC-2; 90'; concentration 40) was 73% and the “% inhibition ApPOL 90'” value (DRC-2; 90'; concentration 80) was 74%. The “% inhibition apPOL 180'” value (DRC-2; 180'; concentration 2.5) was 3.16%, the “% inhibition apPOL 180'” value (DRC-2; 180'; concentration 5) was 15% and the “% inhibition apPOL 180'” value (DRC-2; 180'; concentration 10) was 27%. For the same molecule, the “% inhibition apPOL 180'” value (DRC-2; 180'; concentration 20) was 51%, the “% inhibition apPOL 180'” value (DRC-2; 180'; concentration 40) was 73% and the “% inhibition apPOL 180'” value (DRC-2; 180'; concentration 80) was 77%. For the same molecule, the “% inhibition Apol 40'” value (conc. 5; 40'; DRC-2) was 27%, the “% inhibition apPOL 180'” value (conc. 10; 180'; DRC-2) was 27% and the “% inhibition Apol 40'” value (conc. 40; 40'; DRC-2) was 69%. For the same molecule, the “% inhibition ApPOL 90'” value (conc. 40; 90'; DRC-2) was 73%, the “% inhibition apPOL 180'” value (conc. 40; 180'; DRC-2) was 73% and the “% inhibition Apol 40'” value (conc. 80; 40'; DRC-2) was 69%. For the same molecule, the “DNA Pol” value (primary screen value by plate and well; 90 min, 10 µM) was 43 and the “DNA Pol” value (primary screen value of the 186 hits; unit not given; 90 min, 10 µM) was 43.
